Results as given in ChEMBL document CHEMBL1201862, “PubChem BioAssay data set” (2004).
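Cultured in 96-well plates, cells were exposed to test compound for 48 hours across five concentrations. Here, GI50 denotes the concentration required for 50% inhibition of growth.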 Calls of active or inactive are those of the source. Cut-off read from the data, not from the text of the source: active = GI50 up to about 1.1 µM and inactive = higher.

Legend:
Assay in all cases: inhibition of tumour cell growth, NCI panel, 48 h
[1] = test system: OVCAR-8
[2] = test system: LOX IMVI
[3] = test system: OVCAR-5
[4] = test system: CAKI-1
[5] = test system: OVCAR-3
[6] = test system: HL-60
[7] = test system: COLO 205
[8] = test system: SW-620
[9] = test system: KM12
[10] = test system: DMS-273
[11] = test system: HT-29
[12] = test system: HOP-62
[13] = test system: M14
[14] = test system: U-251
[15] = test system: RXF 393
[16] = test system: MDA-MB-231
[17] = test system: RPMI-8226
[18] = test system: DU-145
[19] = test system: SR
[20] = test system: NCI/ADR-RES

SMILES | GI50 [1] | GI50 [2] | GI50 [3] | GI50 [4] | GI50 [5] | GI50 [6] | GI50 [7] | GI50 [8] | GI50 [9] | GI50 [10] | GI50 [11] | GI50 [12] | GI50 [13] | GI50 [14] | GI50 [15] | GI50 [16] | GI50 [17] | GI50 [18] | GI50 [19] | GI50 [20]
CC(C)(C)c1cc(CCCCCCCC2(CCCCCCCc3cc(C(C)(C)C)cc(C(C)(C)C)c3)OC(COCCOCCCCCC#N)C(COCCOCCCCCC#N)O2)cc(C(C)(C)C)c1 (configuration not stated) | > 100 µM (inactive) | > 100 µM (inactive) | > 100 µM (inactive) | > 100 µM (inactive) | > 100 µM (inactive) | > 100 µM (inactive) | > 100 µM (inactive) | > 100 µM (inactive) | > 100 µM (inactive) | > 100 µM (inactive) | > 100 µM (inactive) | > 100 µM (inactive) | > 100 µM (inactive) | > 100 µM (inactive) | 3.78 µM (inactive) | – | – | – | – | –
CCn1c2c(c3ccccc31)C(c1ccccc1)CC1C(=O)N(c3ccccc3)C(=O)C21 (configuration not stated) | 9.59 µM (inactive) | > 100 µM (inactive) | > 100 µM (inactive) | 35.2 µM (inactive) | > 100 µM (inactive) | 68.9 µM (inactive) | > 100 µM (inactive) | > 100 µM (inactive) | > 100 µM (inactive) | 51.4 µM (inactive) | – | 87.1 µM (inactive) | > 100 µM (inactive) | > 10 µM (inactive) | – | – | – | – | – | –
Cc1ccccc1-n1c(=O)nc2n(-c3ccc(C(C)(C)C)cc3)c3ccccc3cc-2c1=O | 17.1 µM (inactive) | 15.6 µM (inactive) | 25.9 µM (inactive) | 23.9 µM (inactive) | 18.4 µM (inactive) | 20.3 µM (inactive) | 18.5 µM (inactive) | 15.9 µM (inactive) | 15.3 µM (inactive) | – | 16.5 µM (inactive) | 20.2 µM (inactive) | 17.7 µM (inactive) | 15 µM (inactive) | 21.8 µM (inactive) | 19 µM (inactive) | 24.2 µM (inactive) | 21.1 µM (inactive) | 30.1 µM (inactive) | 16.7 µM (inactive)
Cc1cc2ncn(CC(=O)O)c2cc1C | > 100 µM (inactive) | > 100 µM (inactive) | > 100 µM (inactive) | > 100 µM (inactive) | > 100 µM (inactive) | > 100 µM (inactive) | > 100 µM (inactive) | > 100 µM (inactive) | > 100 µM (inactive) | – | > 100 µM (inactive) | > 100 µM (inactive) | > 100 µM (inactive) | > 100 µM (inactive) | > 100 µM (inactive) | > 100 µM (inactive) | > 100 µM (inactive) | > 100 µM (inactive) | > 100 µM (inactive) | > 100 µM (inactive)
O=C(N/C(=C\c1c(O)ccc2ccccc12)c1nc2ccccc2[nH]1)c1ccccc1 | 54.8 µM (inactive) | > 100 µM (inactive) | > 100 µM (inactive) | > 100 µM (inactive) | > 100 µM (inactive) | – | > 100 µM (inactive) | > 100 µM (inactive) | > 100 µM (inactive) | > 100 µM (inactive) | > 100 µM (inactive) | 25.9 µM (inactive) | > 100 µM (inactive) | 79.3 µM (inactive) | 22.1 µM (inactive) | – | > 100 µM (inactive) | – | – | –
COc1cc(C2C3=C(COC3=O)Oc3cc4c(cc32)OCO4)ccc1OC(C)=O (configuration not stated) | 0.752 µM (active) | 0.708 µM (active) | 5.22 µM (inactive) | 0.303 µM (active) | 0.244 µM (active) | 0.188 µM (active) | 0.224 µM (active) | 0.284 µM (active) | 0.255 µM (active) | – | 0.346 µM (active) | 1.73 µM (inactive) | 0.498 µM (active) | 0.492 µM (active) | 0.67 µM (active) | 0.436 µM (active) | 0.34 µM (active) | 0.492 µM (active) | 0.179 µM (active) | 0.279 µM (active)
CCOP(=O)(OCC)C(c1ccc(F)cc1)N(C(=O)NC(F)(F)F)c1cccc(C(F)(F)F)c1 (configuration not stated) | > 100 µM (inactive) | > 100 µM (inactive) | > 100 µM (inactive) | > 100 µM (inactive) | > 100 µM (inactive) | 43.9 µM (inactive) | > 100 µM (inactive) | > 100 µM (inactive) | > 100 µM (inactive) | – | 86.9 µM (inactive) | > 100 µM (inactive) | > 100 µM (inactive) | > 100 µM (inactive) | 52.8 µM (inactive) | > 100 µM (inactive) | 63 µM (inactive) | > 100 µM (inactive) | 75.3 µM (inactive) | 82.8 µM (inactive)
[N-]=[N+]=Nc1ccccc1C(=O)N1C(=O)c2ccccc2C(=O)N(C(=O)c2ccccc2N=[N+]=[N-])c2ccccc21 | 97.3 µM (inactive) | 19.8 µM (inactive) | > 100 µM (inactive) | 59 µM (inactive) | 37.7 µM (inactive) | > 10 µM (inactive) | 34.1 µM (inactive) | 32.1 µM (inactive) | 57.8 µM (inactive) | – | 98.6 µM (inactive) | 21.6 µM (inactive) | > 100 µM (inactive) | 40 µM (inactive) | 27.4 µM (inactive) | 52.8 µM (inactive) | 36.8 µM (inactive) | > 100 µM (inactive) | 38.8 µM (inactive) | 40.8 µM (inactive)
COc1cccc(O)c1-c1cc(=O)c2c(O)c(OC)c(OC)c(OC)c2o1 [SKULLCAPFLAVONE II] | 30.3 µM (inactive) | 30.2 µM (inactive) | 50.9 µM (inactive) | 22.8 µM (inactive) | 22.5 µM (inactive) | 20.4 µM (inactive) | 16.5 µM (inactive) | 31.8 µM (inactive) | 12 µM (inactive) | – | 6.5 µM (inactive) | 17.5 µM (inactive) | 23.5 µM (inactive) | 31.6 µM (inactive) | 14.1 µM (inactive) | 41 µM (inactive) | 18.7 µM (inactive) | 16.4 µM (inactive) | 4.82 µM (inactive) | 21.8 µM (inactive)
[N-]=[N+]=CC(=O)OC1Cc2ccccc2C1 | > 100 µM (inactive) | > 100 µM (inactive) | 73.1 µM (inactive) | 1 µM (active) | > 100 µM (inactive) | > 100 µM (inactive) | > 72.6 µM (inactive) | > 100 µM (inactive) | > 100 µM (inactive) | – | > 100 µM (inactive) | > 66.8 µM (inactive) | > 100 µM (inactive) | > 100 µM (inactive) | > 42.6 µM (inactive) | > 100 µM (inactive) | > 100 µM (inactive) | 21.1 µM (inactive) | > 100 µM (inactive) | > 100 µM (inactive)
CN(C(=O)C12C3C4C1C1C2C3C41C#N)C(C)(C)C (configuration not stated) | > 100 µM (inactive) | > 100 µM (inactive) | > 100 µM (inactive) | > 100 µM (inactive) | > 100 µM (inactive) | > 100 µM (inactive) | > 100 µM (inactive) | > 100 µM (inactive) | > 100 µM (inactive) | > 100 µM (inactive) | > 100 µM (inactive) | > 100 µM (inactive) | > 100 µM (inactive) | > 100 µM (inactive) | – | – | > 100 µM (inactive) | – | – | –
CC(=O)Oc1c(C)c2c(O)c3c1C1=C(OCOC1=C(C)C3=O)/C(C)=C/C(C)(O)C(O)C(C)C(O)C1C(=O)OC(C(C)C1O)C(C)(O)/C=C\C=C(C)C(=O)N2 (configuration not stated) | 70 µM (inactive) | 27.4 µM (inactive) | 4.46 µM (inactive) | 17.1 µM (inactive) | 43.3 µM (inactive) | 3.25 µM (inactive) | 86.5 µM (inactive) | 63 µM (inactive) | 34.8 µM (inactive) | – | > 100 µM (inactive) | 19.2 µM (inactive) | 34.4 µM (inactive) | 39.7 µM (inactive) | 18.5 µM (inactive) | 21.5 µM (inactive) | 86.9 µM (inactive) | 45.4 µM (inactive) | 43.3 µM (inactive) | 78.3 µM (inactive)
CC1=NN(C(=O)c2ccccc2O)C(=O)/C1=C/c1ccco1 | 2.59 µM (inactive) | 2.67 µM (inactive) | 9.18 µM (inactive) | 1.61 µM (inactive) | 0.65 µM (active) | 1.49 µM (inactive) | 10.5 µM (inactive) | 3.3 µM (inactive) | 7.01 µM (inactive) | – | 12.4 µM (inactive) | 0.497 µM (active) | 1.93 µM (inactive) | 6.89 µM (inactive) | 0.171 µM (active) | 15.1 µM (inactive) | 5.57 µM (inactive) | 4.74 µM (inactive) | 2.94 µM (inactive) | 4.44 µM (inactive)
N#Cc1c(N)nc2c(/N=N\c3ccccc3)c(N)nn2c1Nc1ccccc1 | 3.72 µM (inactive) | 3.4 µM (inactive) | 26.7 µM (inactive) | 8.93 µM (inactive) | 13.9 µM (inactive) | 2.52 µM (inactive) | 9.93 µM (inactive) | 10.8 µM (inactive) | 4.75 µM (inactive) | – | 12.4 µM (inactive) | 20.3 µM (inactive) | 12.1 µM (inactive) | 10.2 µM (inactive) | 13.1 µM (inactive) | 16 µM (inactive) | 3.56 µM (inactive) | 18.2 µM (inactive) | 2.39 µM (inactive) | 20.4 µM (inactive)
CS(=O)(=O)O[C@H]1[C@H](O)c2ccccc2[C@@H]1N=[N+]=[N-] | > 100 µM (inactive) | > 100 µM (inactive) | > 100 µM (inactive) | > 100 µM (inactive) | > 100 µM (inactive) | > 100 µM (inactive) | > 100 µM (inactive) | > 100 µM (inactive) | > 100 µM (inactive) | – | > 100 µM (inactive) | > 100 µM (inactive) | > 100 µM (inactive) | > 100 µM (inactive) | > 100 µM (inactive) | > 100 µM (inactive) | > 100 µM (inactive) | > 100 µM (inactive) | > 100 µM (inactive) | > 100 µM (inactive)
